Results on one compound are retold here after PMC7044277 (Nature Communications, 2020).

“And” between values parts separate entries of the source, which are not always exact repeats. Equal values may be shown once.

Common to all, as to format: cell-based
The target in experiment [1] is T1, 320 non-olfactory GPCRs (Homo sapiens, UniProt Q8IZF7).
T1 construct: expressed in transfected cells; host or cells: HTLA cells

The target of experiment [2] is 320 non-olfactory GPCRs (Homo sapiens, UniProt P30542).
Chain of 320 non-olfactory GPCRs (Homo sapiens, UniProt P30542) (P30542 whole entry): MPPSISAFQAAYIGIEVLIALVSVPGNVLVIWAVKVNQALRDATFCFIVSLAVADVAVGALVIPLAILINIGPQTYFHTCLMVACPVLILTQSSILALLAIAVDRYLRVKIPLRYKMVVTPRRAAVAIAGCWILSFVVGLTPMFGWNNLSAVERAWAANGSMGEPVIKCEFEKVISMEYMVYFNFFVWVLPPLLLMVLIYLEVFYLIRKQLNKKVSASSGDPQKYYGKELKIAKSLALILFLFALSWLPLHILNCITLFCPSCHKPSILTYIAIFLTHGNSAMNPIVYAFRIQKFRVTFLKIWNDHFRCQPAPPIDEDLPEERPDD
Experiment [3] deals with T2, 320 non-olfactory GPCRs (Homo sapiens, UniProt Q96P66).
T2 construct: expressed in transfected cells; host or cells: HTLA cells
T2 sequence (Q96P66 whole entry): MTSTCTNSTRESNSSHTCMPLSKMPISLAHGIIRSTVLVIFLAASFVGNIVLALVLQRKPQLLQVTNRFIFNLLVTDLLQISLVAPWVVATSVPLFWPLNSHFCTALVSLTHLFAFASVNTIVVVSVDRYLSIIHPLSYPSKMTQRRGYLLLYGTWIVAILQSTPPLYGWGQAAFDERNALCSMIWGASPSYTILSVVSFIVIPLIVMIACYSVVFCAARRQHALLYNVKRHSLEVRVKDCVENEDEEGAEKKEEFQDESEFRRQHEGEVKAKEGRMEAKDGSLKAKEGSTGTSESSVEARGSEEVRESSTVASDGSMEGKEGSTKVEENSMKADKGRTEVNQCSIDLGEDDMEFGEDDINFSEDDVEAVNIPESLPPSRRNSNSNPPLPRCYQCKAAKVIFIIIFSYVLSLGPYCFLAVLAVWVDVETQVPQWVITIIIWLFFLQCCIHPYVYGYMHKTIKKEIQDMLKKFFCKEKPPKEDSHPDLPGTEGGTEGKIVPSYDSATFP

The target in experiment [4] is 320 non-olfactory GPCRs (Homo sapiens, UniProt Q13258). Conditions: receptor PTGDR; replicate values, Fig_4g.
Chain of 320 non-olfactory GPCRs (Homo sapiens, UniProt Q13258) (Q13258 whole entry): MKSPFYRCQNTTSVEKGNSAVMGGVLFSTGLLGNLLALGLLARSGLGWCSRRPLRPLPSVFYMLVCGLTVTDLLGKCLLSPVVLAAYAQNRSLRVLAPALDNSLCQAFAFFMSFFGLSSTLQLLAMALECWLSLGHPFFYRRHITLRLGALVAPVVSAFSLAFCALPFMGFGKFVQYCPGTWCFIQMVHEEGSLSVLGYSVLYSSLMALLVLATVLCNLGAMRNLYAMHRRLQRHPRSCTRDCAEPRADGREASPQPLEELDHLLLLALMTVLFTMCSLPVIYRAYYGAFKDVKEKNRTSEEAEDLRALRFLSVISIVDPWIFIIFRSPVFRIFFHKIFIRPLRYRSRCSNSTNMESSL
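For Fold of Basal in this document: compound tested at 1 µM final concentration.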
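For GPCRome agonism screen response in this document: fold over basal response of each receptor without drug.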

T1 sequence (Q8IZF7 whole entry): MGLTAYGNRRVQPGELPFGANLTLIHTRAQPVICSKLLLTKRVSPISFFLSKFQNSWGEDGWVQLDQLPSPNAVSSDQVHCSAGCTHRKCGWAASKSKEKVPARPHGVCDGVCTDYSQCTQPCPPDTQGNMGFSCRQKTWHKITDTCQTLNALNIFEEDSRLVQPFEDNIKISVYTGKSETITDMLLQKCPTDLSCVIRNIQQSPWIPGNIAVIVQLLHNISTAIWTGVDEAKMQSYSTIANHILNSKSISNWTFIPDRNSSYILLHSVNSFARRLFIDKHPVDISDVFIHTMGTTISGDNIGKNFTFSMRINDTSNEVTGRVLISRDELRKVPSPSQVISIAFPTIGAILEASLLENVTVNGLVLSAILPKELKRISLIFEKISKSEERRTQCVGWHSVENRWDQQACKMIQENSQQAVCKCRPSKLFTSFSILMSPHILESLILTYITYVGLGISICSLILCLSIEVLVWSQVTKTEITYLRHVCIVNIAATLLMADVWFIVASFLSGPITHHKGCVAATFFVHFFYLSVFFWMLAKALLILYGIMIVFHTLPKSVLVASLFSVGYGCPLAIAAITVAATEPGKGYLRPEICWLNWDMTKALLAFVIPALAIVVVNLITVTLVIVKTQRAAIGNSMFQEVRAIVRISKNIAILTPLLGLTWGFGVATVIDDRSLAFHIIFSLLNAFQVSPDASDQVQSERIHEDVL

For the compound `CCOc1cccc2cc(C(C)NCC3(O)CCCCC3)oc12` (stereo not shown) [O4LE6], the “Fold of Basal” value was 0.7426 and 0.9005 and 0.7298 and 0.9165 in experiment [1]; 0.6117 and 1.0436 and 0.9318 and 0.9525 in experiment [2]; 1.216 and 1.226 and 0.7864 and 1.078 in experiment [3]. Further, in experiment [4], the “GPCRome agonism screen response” value is 1.067 and 0.797 and 0.4909 and 0.5007.
